Test results: ChEMBL document CHEMBL1811754, “Sesquiterpene and xanthone derivatives from the sea fan-derived fungus Aspergillus sydowii PSU-F154” (J Nat Prod, 2011)
Calls of active or inactive are those of the source. The calls are words filed in the database; no cut-off is given here.

Each compound was assayed on Radical scavenging activity (assay: Antioxidant activity assessed as DPPH radical scavenging activity after 30 mins by spectrophotometry).
Format: functional

| Compound | Activity | IC50 [µM] |
| --- | --- | --- |
| COC(=O)c1cccc2oc3cc(C)cc(O)c3c(=O)c12 | inactive | – |
| COC(=O)[C@@H]1c2c(oc3cc(CO)cc(O)c3c2=O)C=C[C@H]1O | – | 17 |
| COC(=O)[C@@]1(O)c2c(oc3cc(C)cc(O)c3c2=O)CC[C@H]1O | inactive | – |
| Cc1c(CCC(C)C)oc2cc(C(=O)O)ccc12 | inactive | – |
| O=C1N[C@@H](Cc2c[nH]c3ccccc23)C(=O)N[C@H]1Cc1ccccc1 | inactive | – |
| COC(=O)c1c(O)ccc2oc3cc(CO)cc(O)c3c(=O)c12 | inactive | – |
| CO[C@@](C)(CCCC(C)C)c1ccc(C(=O)O)cc1O | inactive | – |
| COC(=O)c1cccc2oc3cc(CO)cc(O)c3c(=O)c12 | inactive | – |
| C/C(=C\CCC(C)C)c1ccc(CO)cc1O | inactive | – |
